Earlier results as cited in patent US20120149888A1, “SYNTHESIS OF ARA-2'-O-METHYL-NUCLEOSIDES, CORRESPONDING PHOSPHORAMIDITES AND OLIGONUCLEOTIDES INCORPORATING NOVEL MODIFICATIONS FOR BIOLOGICAL APPLICATION IN THERAPEUCTICS, DIAGNOSTICS, G- TETRAD FORMING OLIGONUCLEOTIDES AND APTAMERS” (priority 2009, published 2012).
Several values for one entry are separate records, joined by “and”; a condition that tells them apart may be missing. Equal values may be shown once. Entries after “also recorded” stand apart in the source; their conditions may differ. Read-outs that look alike come from different tables or passages of the source.

How the values were obtained:
[1] = system: mouse leukemia L1210; conditions: L1210 cells
[2] = system: human tumors; conditions: once, 3 times and 5 times weekly for 2 or 4 weeks
[3] = system: human nasopharyngeal KB cells
[4] = system: human tumors
[5] = system: 36 human tumor cell lines
[6] = system: 11 human tumor xenografts; conditions: 11 xenografts
[7] = system: L1210-ara-C; conditions: L1210-ara-C (Mihich et al., 1970)
[8] = system: mouse and human tumor cells
[9] = system: Lewis lung carcinoma cells; conditions: in vivo
[10] = polarographically, aprotic conditions, in the presence of alpha-lipoic acid
[11] = system: AKR/r-AzCdR; conditions: 5-Aza-2′-deoxycytidine-resistant AKR-r-AzCdr
[12] = target: dCyd kinase (Homo sapiens, UniProt P27707)
Chain of dCyd kinase (P27707 whole entry): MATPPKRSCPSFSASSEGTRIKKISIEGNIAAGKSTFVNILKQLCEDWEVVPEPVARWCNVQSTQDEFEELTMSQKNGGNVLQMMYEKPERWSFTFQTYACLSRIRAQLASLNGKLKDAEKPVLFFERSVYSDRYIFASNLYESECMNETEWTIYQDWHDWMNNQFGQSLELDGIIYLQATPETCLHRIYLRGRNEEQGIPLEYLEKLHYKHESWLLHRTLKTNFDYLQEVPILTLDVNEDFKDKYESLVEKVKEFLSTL

[13] = system: 13 human cancer cell lines; conditions: for effect of tetrahydrouridine on antiproliferative activity: Cyd deaminase inhibitor
[14] = system: human cancer xenograft; conditions: in vivo
[15] = system: Ehrlich ascites (EAC-R1); conditions: 6-Mercaptopurine-resistant Ehrlich ascites (EAC-R1)
[16] = system: L1210/MP(III); conditions: 6-Mercaptopurine-resistant L1210/MP(III)
[17] = system: Ehrlich ascites (ETGR1); conditions: Thioguanine-resistant Ehrlich ascites (ETGR1)
[18] = system: human TT cell line derived from MTC; conditions: 10, 25 and 50 microg/ml for 24 hours
[19] = target: topoisomerase I (top1) (Homo sapiens, UniProt P11387); conditions: gemcitabine incorporated immediately 3′ from a top1 cleavage site on the nonscissile strand
Chain of topoisomerase I (top1) (P11387 whole entry, species assumed): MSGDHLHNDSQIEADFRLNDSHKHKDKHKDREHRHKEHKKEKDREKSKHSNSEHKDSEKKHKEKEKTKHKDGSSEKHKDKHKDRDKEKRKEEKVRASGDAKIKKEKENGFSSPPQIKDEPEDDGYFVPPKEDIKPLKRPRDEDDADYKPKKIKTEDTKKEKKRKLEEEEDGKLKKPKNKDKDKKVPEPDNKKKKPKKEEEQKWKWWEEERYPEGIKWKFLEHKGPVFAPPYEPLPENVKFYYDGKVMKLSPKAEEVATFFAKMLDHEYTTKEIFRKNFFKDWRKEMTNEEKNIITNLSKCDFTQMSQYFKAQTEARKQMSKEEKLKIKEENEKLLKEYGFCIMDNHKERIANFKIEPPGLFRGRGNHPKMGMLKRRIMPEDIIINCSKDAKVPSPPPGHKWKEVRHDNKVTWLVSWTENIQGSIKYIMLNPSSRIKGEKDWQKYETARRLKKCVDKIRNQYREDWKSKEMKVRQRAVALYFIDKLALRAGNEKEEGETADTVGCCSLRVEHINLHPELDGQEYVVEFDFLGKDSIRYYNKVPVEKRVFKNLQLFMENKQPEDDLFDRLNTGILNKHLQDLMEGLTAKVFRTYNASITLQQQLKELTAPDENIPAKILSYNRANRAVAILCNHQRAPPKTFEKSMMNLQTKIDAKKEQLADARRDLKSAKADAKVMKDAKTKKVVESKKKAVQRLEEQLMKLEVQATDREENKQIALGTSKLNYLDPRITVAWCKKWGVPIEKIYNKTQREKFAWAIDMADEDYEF

[20] = system: P388/CPT45 top1-deficient cells
[21] = system: LNCaP, PC-3 and DU-145
[22] = system: ovarian cancer
[23] = system: advanced sarcomas
[24] = system: bone marrow granulopoietic-macrophage progenitor cells; conditions: granulopoietic-macrophagic progenitor cells
[25] = system: normal primary prostatic epithelial cells; conditions: concentrations up to 100 nM
[26] = system: drug-resistant P388 leukemias
[27] = system: AKR/r-AzCR; conditions: 5-Azacytidine-resistant AKR/r-AzCR
[28] = system: Sarcoma 180; conditions: 6-Mercaptopurine-resistant Sarcoma 180
[29] = system: equilibrative NBMPR-sensitive nucleoside transporter (es); conditions: growth-inhibitory concentrations
[30] = system: L1210 TG/R; conditions: Thioguanine-resistant L1210 TG/R
[31] = system: Ehrlich ascites resistant to 5-fluorodeoxyuridine (FUdR); conditions: 5-Fluorodeoxyuridine-resistant Ehrlich ascites
[32] = system: Ehrlich ascites (AZU 1); conditions: 6-Azauracil-resistant Ehrlich ascites (AZU 1)
[33] = system: explants of intact rat colonic mucosa
[34] = system: seven tumors (three melanomas, one lung adenocarcinoma, one breast cancer, and two osteogenic sarcomas); conditions: maximum tolerated dose, four weekly cycles of daily bolus i.v. injections for 5 days; lung carcinoma and all three malignant melanomas
[35] = system: nucleoside carrier-dependent transport; conditions: in vitro
[36] = system: Raji Burkitt's lymphoma; conditions: rat, in vivo
[37] = system: Raji leukemia; conditions: mouse, in vivo
[38] = system: L1210/CA; conditions: 1β-D-Arabinofuranosylcytosine-resistant L1210/CA

With `C#C[C@@]1(O)[C@@H](CO)O[C@@H](n2ccc(N)nc2=O)[C@@H]1O` [ECyd, 1-(3-C-ethynyl-beta-D-ribo-pentofuranosyl)cytosine] as the compound, how does the IC50 [1] read?
Its IC50 is 16 nM.

What about the antitumor activity [2] of the same compound?
The antitumor activity was “strong antitumor activity without serious toxicity”.

What about the IC50 [3] of the same compound?
The IC50 was 28 nM.

And the cytotoxicity ([4]; 24 and 72 h exposures)?
The cytotoxicity was “sufficiently potent cytotoxicity”.

What about the cytotoxicity ([4]; 4 h exposure) of the same compound?
The cytotoxicity was “fairly potent cytotoxicity”.

And the 1050 values [5]?
Its 1050 values is “nanomolar to micromolar range”.

And the “human tumors with potent inhibition” value [6]?
Its value is 9 of 11.

For `CC(=NNC(=N)N)c1ccc(NC(=O)Nc2ccc(C(C)=NNC(=N)N)cc2)cc1` [DDUG, 4′,4′-diacetyldipenylurea bis(guanylhydrazone)], which “Response to chemotherapeutic drugs: Cross-resistant” value [7] is on record?
The value was “DDUG”.

With `[C-]#[N+][C@H]1[C@H](O)[C@@H](CO)O[C@H]1n1ccc(N)nc1=O` [Compound 8, 2′-Deoxy-2′-isocyano-1-beta-D-arabinofuranosylcytosine] as the compound, how does the cytotoxicity [8] read?
The cytotoxicity was “moderately cytotoxic”.

What about the tumor volume inhibition [9] of the same compound?
Its tumor volume inhibition is “only moderate tumor volume inhibition”.

Which results are given for `Nc1ncn([C@@H]2O[C@H](CO)[C@@H](O)[C@H]2O)c(=O)n1` [AzCR, 5-azacytidine]?
index of potential carcinogenicity tg alpha [10]: 0.295; Response to chemotherapeutic drugs: Same as parent line [11]: sensitive; also recorded: AKR-r-AzCdr AzCR

Which “VmaxKm for dCyd kinase, lower than that for dCyd” value [12] does the source give for `C=C1[C@H](n2ccc(N)nc2=O)O[C@H](CO)[C@H]1O` [DMDC, 2′-deoxy-2′-methylidenecytidine] here?
Its value is 8 fold.

And the “suppression of the antiproliferative activity of DMDC by dCyd” value [13]?
The value was “up to 150 fold”.

What about the “effect of tetrahydrouridine on antiproliferative activity” value [13] of the same compound?
The value was “reduced”.

What about the “efficacy in tumors with higher levels of Cyd deaminase” value [14] of the same compound?
The value was “highly effective”.

What about the “efficacy in tumors with lower levels of Cyd deaminase” value [14] of the same compound?
Its value is “only slight activity”.

Which results are given for `CSc1ncnc2c1ncn2[C@@H]1O[C@H](CO)[C@@H](O)[C@H]1O` [Compound 6-MeMPR, 6-methyl thio-purine ribonucleoside]?
Response to chemotherapeutic drugs: Cross-resistant [15]: partially cross-resistant and 6-MeMPR^b; Response to chemotherapeutic drugs: Same as parent line [16]: retained sensitivity and 6-MeMPR; Response to chemotherapeutic drugs: Cross-resistant [17]: partially cross-resistant and 6-MeMPR^b

Which results are given for `Nc1ccn([C@@H]2O[C@H](CO)[C@@H](O)C2(F)F)c(=O)n1` [gemcitabine, 2′,2′difluoro-2′deoxycytidine]?
influence on proliferative activity of TT cells [18]: concentration-dependent inhibitory influence; top1-mediated DNA cleavage [19]: enhanced; resistance of P388/CPT45 top1-deficient cells to gemcitabine [20]: 5 fold; dFdC concentration of maximal inhibition of proliferation and colony formation ([21]; LNCaP, PC-3, DU-145): 30 nM; gemcitabine concentration inhibiting colony formation by two thirds ([21]; prostatic tumor cells): about 3.5 nM; response rate with the drug alone ([22]; previously treated patients): around 13%; response rate for the drug alone ([22]; previously untreated patients with poor prognostic features): 24%; overall response rate ([23]; 1250 mg/m(2) i.v. weekly × three, q28 days): 3%; median time-to progression ([23]; in vivo): 2.1 months; patients who discontinued treatment due to toxicity/refusal ([23]; in vivo): 14%; hematologic toxicities > or = Grade 3, patients ([23]; leukopenia and thrombocytopenia): 32%; gemcitabine concentration inhibiting colony formation by two thirds [24]: 9 nM; inhibitory effects in normal primary prostatic epithelial cells [25]: no inhibitory effects; cross resistance to gemcitabine ([26]; P388 resistant to 1-beta-D-arabinofuranosylcytosine): cross resistant; cross resistance to gemcitabine ([26]; P388 resistant to vincristine, cyclophosphamide, melphalan, cisplatin, methotrexate): not cross resistant; cross resistance to gemcitabine ([26]; multidrug-resistant P388 (resistant to doxorubicin or etoposide)): no cross resistance; effect of tetrahydrouridine on antiproliferative activity [13]: increased to some extent; efficacy in tumors with higher levels of Cyd deaminase [14]: only slightly active

With `Nc1ncn([C@H]2C[C@H](O)[C@@H](CO)O2)c(=O)n1` [AzCdR, 5-aza-2′-deoxycytidine] as the compound, how does the “Response to chemotherapeutic drugs: Cross-resistant” value [27] read?
The value was “cross-resistant; also recorded: AzCdR”.

For `Nc1nc(N)c2ccc(CNc3ccc(C(=O)N[C@@H](CC(=O)O)C(=O)O)cc3)cc2n1` [Quinaspar], which “Response to chemotherapeutic drugs: collaterally sensitive” value [28] is on record?
The value was “Quinaspar”.

What does the source list for `O=c1[nH]cc(F)c(=O)[nH]1` [5-fluorouracil]?
expression of es [29]: increases; Response to chemotherapeutic drugs: Cross-resistant [30]: 5-Fluorouracil; Response to chemotherapeutic drugs: Cross-resistant [31]: 5-Fluorouracil; Response to chemotherapeutic drugs: collaterally sensitive [32]: 5-Fluorouracil; Response to chemotherapeutic drugs: collaterally sensitive ([32]; listed as FU): collaterally sensitive; human tumors with potent inhibition [6]: only one tumor; incorporation of tritiated TdR into DNA [33]: not altered; levels of tritiated deoxyuridine [33]: reduced

Which tumor response [34] does the source give for `CCCCCCCC/C=C/CCCCCCCC(=O)OC[C@H]1O[C@@H](n2ccc(N)nc2=O)[C@@H](O)[C@@H]1O` [Compound P-4055] here?
Its tumor response is “partial or complete tumor regression”.

What about the “cellular sensitivity in presence of nitrobenzylmercaptopurine riboside and dipyridamol” value [35] of the same compound?
Its value is “not”.

And the “long-time survivors (>70 days)” value [36]?
The value was “three of five”.

What about the “animals that survived (>80 days)” value [37] of the same compound?
Its value is 8 of 10.

Which “Response to chemotherapeutic drugs: Same as parent line” value [38] does the source give for `CC(C=NNC(=N)N)=NNC(=N)N` [MGGH, methylglyoxal bis(guanylhydrazone)] here?
The value was “MGGH”.

And the “Response to chemotherapeutic drugs: Same as parent line” value [7]?
The value was “MGGH”.
